According to patent US8722580B2, “Agent for inhibiting cytokinin signaling” (Sumitomo Chemical Company, Limited, priority 2006, dated 2014):

Columns and labels:
[1] = test system: Arabidopsis thaliana; assay: Root growth-promoting activity test (Example 9); type: in vivo; conditions: main root length vs control section, 22° C., 10 days; for activity at 10 ppm / activity at 5 ppm / activity at 2.5 ppm: Arabidopsis thaliana, 240 h; for activity at 10 ppm: test final concentration 10 ppm (concentration with highest root growth rate)
Protocol: (§1) Enshi standard medium having the following composition (see Table 10) was prepared. To cluster tubes was dispensed each 4 μl of a solution of a chemical substance in DMSO to a final concentration of 0.001 ppm to 10 ppm, and then, was dispensed each 600 μl of the sterilized Enshi standard medium. Then the resulting solution was well mixed. In each of the cluster tubes, 10-20 seeds of Arabidopsis thaliana were sown, and cultured at 22° C. for 10 days in the light. Then, the length of main roots (average main roots) generated from the seeds of Arabidopsis thaliana was measured. An average of eight repeats was determined, and a root growth rate was determined according to the following equation.
(§2) Root growth rate (%)=(Average main root length in chemical substance-treated section)/(Average main root length in control section)×100

[2] = test system: transformed cell TM182-p415CYC1; assay: Control growth test with transformed yeast cell TM182-p415CYC1 (toxicity to yeast); type: cell-based; conditions: trans-zeatin 0.6 ppm; chemical substance 2 ppm; 30° C., 24 hours; turbidity OD 600
Protocol: (§3) The transformed cell TM182-CRE1 and the transformed cell TM182-p415CYC1 obtained in Example 6 were each inoculated in 10 ml of a DOLU+Gal medium, and preincubated at 30° C. for 18 hours to obtain a preincubation liquid for each of the transformed cells. The preincubation liquid was diluted with a DOLU+Glu medium for the transformed cell TM182-CRE1 or with a DOLU+Gal medium for the transformed cell TM182-p415CYC1 until OD600=0.1 was reached, to obtain a preincubation dilution for each of the transformed cells.
(§4) To each well of a 96-well plate was added 1 μl of a 200 ppm solution of a test substance in dimethyl sulfoxide (DMSO) to prepare an Assay plate. At the same time, as controls, only 1 μl of DMSO was added to a part of wells. An assay plate for the transformed cell TM182-CRE1 and an assay plate for the transformed cell TM182-p415CYC1 were prepared.
(§5) A 10,000 ppm solution of trans-zeatin (cytokinin) in DMSO was 50-fold diluted with a DOLU+Gul medium to 200 ppm. The 200 ppm trans-zeatin solution was added in an amount of 3/1,000 volume to each of the above-described preincubation dilution to prepare each preincubation dilution containing trans-zeatin at 0.6 ppm. The 0.6 ppm preincubation dilution was added in an amount of 100 μl to each wells of the assay plate for each transformed cell. The plates were incubated at 30° C. for 24 hours. Then, turbidity (OD 600) of each well was measured by using a plate reader. The activity of the test substance for inhibiting intracellular signaling from a plant-derived cytokinin receptor of a cell was tested by comparing the measured turbidity with the turbidity of the control well.
(§6) (Relative growth rate in test section to control section) [%]=[(Turbidity in test section)−(Turbidity in blank)]/[(Turbidity in control section)−(Turbidity in blank)]×100 (Activity of inhibiting intracellular signaling from plant-derived cytokinin receptor of cell) [%]=100−(Relative growth rate in test section to control section)
(§7) In all cases, the existing concentration of trans-zeatin was adjusted to 0.6 ppm and the existing concentration of a chemical substance was adjusted to 2 ppm.
(§8) In all cases, the existing concentration of trans-zeatin was adjusted to 0.6 ppm and the existing concentration of a chemical substance was adjusted to 2 […].

[3] = target: T1, cytokinin receptor CRE1 (Arabidopsis thaliana, UniProt Q9C5U0, S567G/T1018A); assay: Inhibition of intracellular signaling from plant-derived cytokinin receptor, growth of transformed yeast cell TM182-CRE1; type: cell-based; conditions: for inhibition at 2 ppm: read-out: Activity (%) of test substance for inhibiting intracellular signaling from plant-derived cytokinin receptor of cell; for Relative growth rate (%) in test section of test substance to control section, Transformed cell TM182-CRE1 / Activity (%) of test substance for inhibiting intracellular signaling from plant-derived cytokinin receptor of cell: trans-zeatin 0.6 ppm, chemical substance 2 ppm; for Relative growth rate (%) in test section of test substance to control section, Transformed cell TM182-CRE1: 30° C., 24 hours, turbidity OD 600; for Activity (%) of test substance for inhibiting intracellular signaling from plant-derived cytokinin receptor of cell: = 100 − relative growth rate of TM182-CRE1
T1 construct: expressed in transfected cells; host or cells: Saccharomyces cerevisiae TM182 (sln1Δ) transformed with p415CYC-CRE1
Protocol: as §3, §4, §5, §6, §7, §8

[4] = test system: Arabidopsis thaliana; assay: Root growth-promoting activity test (Example 22); type: in vivo; conditions: main root length vs control section, 22° C., 10 days
Protocol: as §1, with “18)” for “10)”
as §2
Enshi standard medium determined having the following composition (Table 18) was prepared. A DMSO solution of a chemical substance was dispensed by 4 μl to cluster tubes to a final concentration of 0.001 ppm to 10 ppm and the sterilized Enshi standard medium was dispensed by 600 μl and then the resulting solution was well mixed. 10-20 seeds of A. thaliana per cluster tube were sown in the cluster tubes. After culture at 22° C. for 10 days in bright light, the length of main roots (average main roots) took from seeds of A. thaliana was measured. An average of eight repeats was determined and the root growth rate was determined.
Root growth rate (%)=(Average main root length of chemical substance-treated section)/(Average main root length of control section)×100

[5] = test final concentration 5 ppm (highest root growth rate)
[6] = test final concentration 5 ppm (concentration with highest root growth rate)
[7] = test final concentration 2.5 ppm (highest root growth rate)
[8] = test final concentration 2.5 ppm (concentration with highest root growth rate)

T1 sequence (Q9C5U0 24-1080 S567G/T1018A): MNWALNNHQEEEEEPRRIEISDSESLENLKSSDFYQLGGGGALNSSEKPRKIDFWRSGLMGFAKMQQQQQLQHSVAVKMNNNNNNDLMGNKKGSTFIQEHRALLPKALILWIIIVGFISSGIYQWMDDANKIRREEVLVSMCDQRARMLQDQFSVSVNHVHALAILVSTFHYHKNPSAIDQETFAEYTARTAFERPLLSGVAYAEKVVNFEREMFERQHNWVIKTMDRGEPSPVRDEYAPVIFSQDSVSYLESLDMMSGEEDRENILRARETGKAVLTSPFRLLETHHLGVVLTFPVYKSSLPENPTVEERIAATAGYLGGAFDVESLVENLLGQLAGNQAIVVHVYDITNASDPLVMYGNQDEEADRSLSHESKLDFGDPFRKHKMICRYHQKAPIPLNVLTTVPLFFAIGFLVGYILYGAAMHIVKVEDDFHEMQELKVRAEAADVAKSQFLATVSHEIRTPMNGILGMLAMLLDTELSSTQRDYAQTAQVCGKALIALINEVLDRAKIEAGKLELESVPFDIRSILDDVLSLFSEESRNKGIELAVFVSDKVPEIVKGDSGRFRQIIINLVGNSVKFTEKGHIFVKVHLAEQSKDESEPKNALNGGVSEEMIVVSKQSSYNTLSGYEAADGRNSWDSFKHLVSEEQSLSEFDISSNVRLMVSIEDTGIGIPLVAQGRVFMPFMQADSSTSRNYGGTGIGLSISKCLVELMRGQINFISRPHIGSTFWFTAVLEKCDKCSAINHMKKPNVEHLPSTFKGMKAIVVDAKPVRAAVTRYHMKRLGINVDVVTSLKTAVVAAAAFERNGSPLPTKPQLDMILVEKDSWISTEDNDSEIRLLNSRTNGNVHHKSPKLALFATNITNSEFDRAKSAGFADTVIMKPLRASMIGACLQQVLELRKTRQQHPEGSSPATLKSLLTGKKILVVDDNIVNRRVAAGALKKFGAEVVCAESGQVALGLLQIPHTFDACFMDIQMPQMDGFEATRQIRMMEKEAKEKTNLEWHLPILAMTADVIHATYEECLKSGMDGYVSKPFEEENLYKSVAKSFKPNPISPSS

SMILES | melting point [°C] | Relative growth rate (%) in test section of test substance to control section, Transformed cell TM182-p415CYC1 [2] [%] | Relative growth rate (%) in test section of test substance to control section, Transformed cell TM182-CRE1 [3] [%] | Activity (%) of test substance for inhibiting intracellular signaling from plant-derived cytokinin receptor of cell [3] [%] | other results
SCCNc1nc(-c2ccccc2)c2cc(Cl)ccc2n1 [Ic3-13, 6-chloro-2-(2-mercaptoethylamino)-4-phenylquinazoline] | 165.9 | – | – | – | activity at 10 ppm [1]: 140%
Clc1ccc2nc(NCc3ccco3)nc(-c3ccccc3)c2c1 [Ic3-16, 6-chloro-2-furfurylamino-4-phenylquinazoline] | 142 | 97.0 | 3.2 | – | inhibition at 2 ppm [3]: 96.8%; Root growth-promoting activity (root growth rate) [4, 5]: 155.3%; activity at 5 ppm [1, 6]: 155%
OCCSc1nc(-c2ccccc2)c2cc(Cl)ccc2n1 [Ie3-1, 6-chloro-2-(2-hydroxyethylthio)-4-phenylquinazoline] | 124.4 | 110.7 | 2.3 | – | inhibition at 2 ppm [3]: 97.7%; activity at 5 ppm [1, 6]: 121%
Nc1nc(-c2ccccc2)c2cc(Cl)cc(Cl)c2n1 [Ic12-4, 2-amino-6,8-dichloro-4-phenylquinazoline] | 212.7 | – | – | – | –
Clc1cc(Cl)c2nc(Cl)nc(-c3ccccc3)c2c1 [Ia1-12, 2,6,8-trichloro-4-phenylquinazoline] | 160.3 | – | – | – | –
O=CNc1nc(-c2ccccc2)c2cc(Cl)ccc2n1 [Ic3-35, 6-chloro-2-formamido-4-phenylquinazoline] | 252.1 | – | – | – | Root growth-promoting activity (root growth rate) [4, 7]: 134.0%; activity at 10 ppm [1]: 144%
CC(=O)SCCNc1nc(-c2ccccc2)c2cc(Cl)ccc2n1 [Ic3-14, 2-(2-acetylthioethylamino)-6-chloro-4-phenylquinazoline] | 128.9 | – | – | – | activity at 2.5 ppm [1, 8]: 126%
CONc1nc(-c2ccccc2)c2cc(Cl)ccc2n1 [Ic3-32, 6-chloro-2-methoxyamino-4-phenylquinazoline] | 173.9 | 89.2 | 4.5 | – | inhibition at 2 ppm [3]: 95.5%; activity at 5 ppm [1, 6]: 123%
Clc1ccc2nc(Cl)nc(-c3ccccc3)c2c1 [Ia1-3, 2,6-dichloro-4-phenylquinazoline] | 166.2 | 113.9 | 5.5 | – | inhibition at 2 ppm [3]: 94.5%; activity at 5 ppm [1, 6]: 138%
OCC(O)CNc1nc(-c2ccccc2)c2cc(Cl)ccc2n1 (centres unmarked) [Ic3-41] | – | 123.3 | 8.8 | 91.2 | Root growth-promoting activity (root growth rate) [4, 5]: 134.5%; Root growth-promoting activity (root growth rate) [1, 6]: 134.5%
OCCCNc1nc(-c2ccccc2)c2cccc(Cl)c2n1 [Ic11-1] | – | 114.5 | 2.2 | 97.8 | Root growth-promoting activity (root growth rate) [4, 5]: 143.9%; Root growth-promoting activity (root growth rate) [1, 6]: 143.9%
Clc1ccc2nc(NCCSSCCNc3nc(-c4ccccc4)c4cc(Cl)ccc4n3)nc(-c3ccccc3)c2c1 [Ic3-15, bis[2-(6-chloro-4-phenyl-2-quinazolinyl)aminoethyl]disulfide] | 159.2 | – | – | – | activity at 5 ppm [1, 6]: 131%
COCCCNc1nc(-c2ccccc2)c2cc(Cl)ccc2n1 [Ic3-38] | – | 99.4 | 1.2 | 98.8 | Root growth-promoting activity (root growth rate) [4, 5]: 141.9%; Root growth-promoting activity (root growth rate) [1, 6]: 141.9%
CC(CO)CCNc1nc(-c2ccccc2)c2cc(Cl)ccc2n1 (centres unmarked) [Ic3-12] | – | 90.9 | 5.6 | 94.4 | Root growth-promoting activity (root growth rate) ([4]; test final concentration 1.25 ppm (highest root growth rate)): 128.9%; Root growth-promoting activity (root growth rate) ([1]; test final concentration 1.25 ppm (concentration with highest root growth rate)): 128.9%
CC(=CCNc1nc(-c2ccccc2)c2cc(Cl)ccc2n1)CO [Ic3-18] | – | 105.3 | 4.0 | 96.0 | Root growth-promoting activity (root growth rate) [4, 7]: 139.5%; Root growth-promoting activity (root growth rate) [1, 8]: 139.5%
Clc1nc(-c2ccccc2)c2cccc(Cl)c2n1 [Ia1-11, 2,8-dichloro-4-phenylquinazoline] | 154.4 | – | – | – | –
COC(=O)CNc1nc(-c2ccccc2)c2cc(Cl)ccc2n1 [Ic3-42] | – | 111.5 | −0.7 | 100.7 | Root growth-promoting activity (root growth rate) ([4]; test final concentration 0.625 ppm (highest root growth rate)): 128.6%; Root growth-promoting activity (root growth rate) ([1]; test final concentration 0.625 ppm (concentration with highest root growth rate)): 128.6%
CN(N)c1nc(-c2ccccc2)c2cc(Cl)ccc2n1 [Ic3-27, 6-chloro-2-(1-methylhydrazino)-4-phenylquinazoline] | 155.9 | 107.4 | 2.3 | – | inhibition at 2 ppm [3]: 97.7%; activity at 2.5 ppm [1, 8]: 128%
